{"source": "patent US20240034999A1", "about": "“IMPROVED REPROGRAMMING, MAINTENANCE AND PRESERVATION FOR INDUCED PLURIPOTENT STEM CELLS” (Fate Therapeutics, Inc., priority 2020, published 2024)", "tested_on": "Human T cells transfected with reprogramming plasmids", "experiment": "T cell reprogramming efficiency, flow cytometry of iPSC surface markers", "assay_type": "cell-based", "settings": "VPA from around day 2-3 post transfection; three T cell donors; versus no VPA", "experimental": "Flow Cytometry Analysis and Sorting Single cell dissociated reprogramming pools were resuspended in chilled staining buffer. Conjugated primary antibodies, including SSEA4-FITC, TRA181-Alexa Fluor-647 and CD30-PE (BD Biosciences), were added to the cell solution and incubated on ice for 15 min. All antibodies were used at 7-10 μL in 100 μL staining buffer per million cells. The resuspended dissociated single cells in staining buffer were spun down and resuspended in staining buffer now containing a ROCK inhibitor and maintained on ice for flow cytometry sorting. Flow cytometry sorting was performed on FACS Aria II (BD Biosciences). The sorted cells were directly ejected into 96-well plates at concentrations of 3 and 9 events per well. Each well was prefilled with FMM2. Upon completion of the sort, 96-well plates were incubated for colony formation and expansion. Seven to ten days post sort, the cells were passaged. Subsequent passages in FMM2 were done routinely upon 75-90% confluency. Flow cytometry analysis was performed on Guava EasyCyte 8 HT (Millipore) and analyzed using FCS Express 4 (De Novo Software). Human T cells from three different donors were transfected with the above reprogramming plasmids on day 0. […] The expression of iPSC surface markers (SSEA4, TRA-1-81, and CD30) was analyzed by flow cytometry."}
{"smiles": "CCCC(CCC)C(=O)O", "note": "[VPA, valproic acid]", "values": [{"measurement": "percentage of SSEA4+TRA-1-81+CD30+ iPSC cells in the population", "value": "significantly increased"}]}
